Drawing on ChEMBL document CHEMBL1141841, “Biotransformation of the trichoderma metabolite 6-n-pentyl-2H-pyran-2-one (6PAP) by selected fungal isolates” (J Nat Prod, 1999), this text covers Activity for five molecules.

Calls of active or inactive are those of the source. The rule behind the calls is not given here.

The test system of the test is Botrytis cinerea. Nature of the test: Antimicrobial activity against Botrytis cinerea by spore germination assay. The test is classed as functional, organism-based.
On to `O=c1cccc(CCCCCO)o1`, for which the outcome was inactive.

Regarding `CC(O)CCCc1cccc(=O)o1` (stereo not given), the result was inactive.

Turning to `O=C(O)CCCCc1cccc(=O)o1`, the result was inactive.

For the molecule `CCCCCc1cccc(=O)o1`, the outcome was Active.

For the molecule `O=C(O)CCc1cccc(=O)o1`, the outcome was inactive.
